Assay results reported in US20230302150A1, “ANTIBODY-TLR AGONIST CONJUGATES, METHODS AND USES THEREOF” (Ambrx, Inc., priority 2020, published 2023).
Like-named read-outs stand apart in the source and are kept apart here. Values belong to the compound of their own block, whether it stands above or below them.

How the values were obtained:
[1] = system: SKBR3 HER2 high expressing tumor cell line / RAW-Blue cells; test: RAW-Blue co-culture assay with SKBR3 tumor cells (HER2 ISACs); type: cell-based, human
Description: RAW-Blue™ cells (Invivogen, San Diego, CA) were co-cultured with human tumor cells with different levels of HER2 expression level at 1:1 E:T ratio with total number of 1 million cells per well in the 96 wells plate. Different concentration of small molecule TLR7 agonist and conjugated ISACs, (Immune Stimulating Antibody Conjugates), were added to the co-culture cell medium. After 24 h incubation, the levels of NF-kB-induced SEAP from the RAW-Blue™ cells were determined by Quanti-Blue detection reagents (Invivogen, San Diego, CA) with readings at OD 655 nm. The dose-response curves were generated using Prism Software.

hTLR7 = target: T1, hTLR7 (Homo sapiens, UniProt Q9NYK1); test: HEK-Blue hTLR7 reporter assay (NF-kB-induced SEAP, Quanti-Blue); type: cell-based
T1 construct: expressed in transfected cells; host or cells: HEK-Blue hTLR7 reporter cell line
T1 sequence (Q9NYK1 27-1049): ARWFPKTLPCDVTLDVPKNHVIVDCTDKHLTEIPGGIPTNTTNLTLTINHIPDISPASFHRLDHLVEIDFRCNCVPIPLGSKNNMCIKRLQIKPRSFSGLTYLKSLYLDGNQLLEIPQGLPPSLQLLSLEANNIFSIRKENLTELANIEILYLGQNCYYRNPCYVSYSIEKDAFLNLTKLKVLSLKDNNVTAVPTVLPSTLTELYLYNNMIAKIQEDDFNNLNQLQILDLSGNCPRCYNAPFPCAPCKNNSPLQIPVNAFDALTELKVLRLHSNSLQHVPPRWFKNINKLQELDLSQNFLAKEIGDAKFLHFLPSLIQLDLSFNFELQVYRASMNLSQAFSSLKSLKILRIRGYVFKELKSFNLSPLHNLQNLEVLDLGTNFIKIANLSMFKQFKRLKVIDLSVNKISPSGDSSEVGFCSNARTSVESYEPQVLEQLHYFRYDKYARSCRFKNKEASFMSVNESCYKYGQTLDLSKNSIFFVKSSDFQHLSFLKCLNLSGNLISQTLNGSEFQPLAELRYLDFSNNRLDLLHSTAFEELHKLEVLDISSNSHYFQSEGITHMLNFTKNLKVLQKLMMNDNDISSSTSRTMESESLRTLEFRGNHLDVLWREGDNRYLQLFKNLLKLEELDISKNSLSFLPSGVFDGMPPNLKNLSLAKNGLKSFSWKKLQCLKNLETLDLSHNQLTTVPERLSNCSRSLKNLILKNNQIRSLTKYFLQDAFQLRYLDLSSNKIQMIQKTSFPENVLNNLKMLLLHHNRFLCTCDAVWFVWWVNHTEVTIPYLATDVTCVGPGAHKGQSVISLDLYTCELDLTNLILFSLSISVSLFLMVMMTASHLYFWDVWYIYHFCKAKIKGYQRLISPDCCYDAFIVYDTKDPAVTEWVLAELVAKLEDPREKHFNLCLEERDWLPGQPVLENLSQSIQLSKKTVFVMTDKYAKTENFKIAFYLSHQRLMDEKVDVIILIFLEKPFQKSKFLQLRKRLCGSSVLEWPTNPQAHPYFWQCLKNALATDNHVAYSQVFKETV
Description: HEK-Blue™ hTLR7 cells were incubated in HEK-Blue™ Detection medium and stimulated with increasing concentrations of TLR7 or TLR8 or TLR7/8 agonists. […] The EC50 was determined from dose-response curve using Prism Software.

[2] = Table 19, TLR7, drug-linkers with PEG shielding, read-out: EC50
[3] = Table 12, TLR7 agonists attached to a linker, read-out: TLR Agonist Payload + Linkers EC50
[4] = Table 15, drug linker, read-out: TLR Agonist + Linker (DL) - EC50
[5] = Table 15, pAF containing final metabolite, read-out: TLR Agonist + Linker + nnAA (DL-pAF) - EC50

SMILES: CCCCOc1nc(N)c2[nH]c(=O)n(Cc3ccc(CN4CCC(C5CCN(C(=O)CON)CC5)CC4)cc3)c2n1 [AXC-901, 6-amino-9-(4-((1′-(2-(aminooxy)acetyl)-4,4′-bipiperidin-1-yl)methyl)benzyl)-2-butoxy-7H-purin-8(9H)-one]
tumor dependent ISAC activity [1]: highest HER2 dependent TLR7 activities | TLR7 activity (comparison in words) (hTLR7): highest potency among different payload linkers | EC50 (hTLR7; Table 13, TLR7, read-out: EC50): 48 nM

SMILES: CCCCOc1nc(N)c2[nH]c(=O)n(Cc3ccc(CN4CCC(CCNC(=O)[C@H](CCCCNC(=O)CON)NC(=O)CCCC(=O)NCCOCCOCCOCCOCCC(=O)NC(COCCC(=O)NCCOCCOCCOCCOC)(COCCC(=O)NCCOCCOCCOCCOC)COCCC(=O)NCCOCCOCCOCCOC)CC4)cc3)c2n1 [AXC-938, (S)-N1-(1-((2-(1-(4-((6-amino-2-butoxy-8-oxo-7,8-dihydro-9H-purin-9-yl)methyl)benzyl)piperidin-4-yl)ethyl)amino)-6-(2-(aminooxy)acetamido)-1-oxohexan-2-yl)-N5-mPEG4-(PEG4)3-glutaramide]
EC50 (hTLR7; [2]): 644 nM

SMILES: CCCCOc1nc(N)c2[nH]c(=O)n(Cc3ccc(CN4CCC(CCNC(=O)CON)CC4)cc3)c2n1 [AXC-879, N-(2-(1-(4-((6-amino-2-butoxy-8-oxo-7H-purin-9(8H)-yl)methyl)benzyl)piperidin-4-yl)ethyl)-2-(aminooxy)acetamide]
tumor dependent ISAC activity [1]: highest HER2 dependent TLR7 activities | TLR7 activity (comparison in words) (hTLR7): highest potency among different TLR-agonist (payload) linkers | EC50 (hTLR7; [3]): 151 nM | EC50 (hTLR7; [4]): 151 nM | EC50 (hTLR7; [5]): 90 nM

EC50 (hTLR7; Table 10, read-out: TLR7 EC50): 83.3 nM
SMILES: CCCCc1nc2c(N)nc3ccccc3c2n1CCCCNC(=O)c1ccc(N)c(F)c1 [AXC-778, 4-amino-N-(4-(4-amino-2-butyl-1H-imidazo[4,5-c]quinolin-1-yl)butyl)-3-fluorobenzamide]

SMILES: CCCCOc1nc(N)c2[nH]c(=O)n(Cc3ccc(CNCCCCCCN)cc3)c2n1 [AXC-881, 6-amino-9-(4-((6-aminohexylamino)methyl)benzyl)-2-butoxy-7H-purin-8(9H)-one]
EC50 (hTLR7; Table 11, TLR7 activities, read-out: EC50): 87.3 nM

SMILES: CCCCOc1nc(N)c2[nH]c(=O)n(Cc3ccc(CN4CCC(CCNC(=O)[C@@H](CCCCN)NC(=O)CON)CC4)cc3)c2n1 [AXC-958, (R)-6-amino-N-(2-(1-(4-((6-amino-2-butoxy-8-oxo-7,8-dihydro-9H-purin-9-yl)methyl)benzyl)piperidin-4-yl)ethyl)-2-(2-(aminooxy)acetamido)hexanamide]
EC50 (hTLR7; [2]): 39.6 nM

SMILES: CCCCOc1nc(N)c2[nH]c(=O)n(Cc3ccc(CN4CCC(CCNC(=O)[C@H](CCCCNC(=O)CON)NC(=O)CCCC(=O)NCCOCCOCCOCCOCCOCCOCCOCCOCCOCCOCCOCCOCCOCCOCCOCCOCCOCCOCCOCCOCCOCCOCCOCCOCCOCCOCCOCCOCCOCCOCCOCCOCCOCCOCCOCCOCCOCCOCCOCCOCCOCCOCCOCCOCCOCCOCCOCCOC)CC4)cc3)c2n1 [AXC-936, (S)-N1-(1-((2-(1-(4-((6-amino-2-butoxy-8-oxo-7,8-dihydro-9H-purin-9-yl)methyl)benzyl)piperidin-4-yl)ethyl)amino)-6-(2-(aminooxy)acetamido)-1-oxohexan-2-yl)-N5-(PEG48)-glutaramide]
EC50 (hTLR7; [2]): 764 nM

EC50 (hTLR7; [3]): 829 nM | EC50 (hTLR7; [4]): 829 nM | EC50 (hTLR7; [5]): 283 nM
SMILES: CCCCNc1nc(N)c2[nH]c(=O)n(Cc3ccc(N4CCN(CCNC(=O)CON)CC4)nc3)c2n1 [AXC-867]

SMILES: CCCCOc1nc(N)c2[nH]c(=O)n(Cc3ccc(CN4CCC(CCNC(=O)[C@@H](N)CCCCn5cc(CON)nn5)CC4)cc3)c2n1 [AXC-935, (S)-2-amino-N-(2-(1-(4-((6-amino-2-butoxy-8-oxo-7,8-dihydro-9H-purin-9-yl)methyl)benzyl)piperidin-4-yl)ethyl)-6-(4-((aminooxy)methyl)-1H-1,2,3-triazol-1-yl)hexanamide]
EC50 (hTLR7; [2]): 40 nM

EC50 (hTLR7; Table 10, read-out: TLR7 EC50): 910 nM
SMILES: CCCCc1nc2c(N)nc3ccccc3c2n1CCCCNC(=O)c1ccc(N2CCCC2)cc1 [AXC-777, N-(4-(4-amino-2-butyl-1H-imidazo[4,5-c]quinolin-1-yl)butyl)-4-(pyrrolidin-1-yl)benzamide]
